Source: ChEMBL document CHEMBL5226307, “Advances in Cyclic Nucleotide Phosphodiesterase-Targeted PET Imaging and Drug Discovery” (J Med Chem, 2021)
Values belong to the compound of their own block, whether it stands above or below them.

Columns and labels:
[1] = biological target: Phosphodiesterase 7 (Homo sapiens, UniProt Q13946+Q9NP56); assay: Inhibition of PDE7 (unknown origin); format: protein assay
[2] = Stability in mouse brain measured at 15 mins; format: ADME, tissue-based; details: read-out: Stability
[3] = Drug uptake in NMRI mouse lung assessed as maximum standardized uptake value incubated for 30 mins; format: ADME, tissue-based; details: in vivo, 0.5 h
[4] = Drug uptake in NMRI mouse lung incubated for 30 mins relative to control; format: ADME, tissue-based; details: in vivo, 0.5 h
[5] = biological target: T1, cGMP-dependent 3',5'-cyclic phosphodiesterase (Homo sapiens, UniProt O00408); assay: Inhibition of human PDE2A
T1 sequence (O00408 whole entry): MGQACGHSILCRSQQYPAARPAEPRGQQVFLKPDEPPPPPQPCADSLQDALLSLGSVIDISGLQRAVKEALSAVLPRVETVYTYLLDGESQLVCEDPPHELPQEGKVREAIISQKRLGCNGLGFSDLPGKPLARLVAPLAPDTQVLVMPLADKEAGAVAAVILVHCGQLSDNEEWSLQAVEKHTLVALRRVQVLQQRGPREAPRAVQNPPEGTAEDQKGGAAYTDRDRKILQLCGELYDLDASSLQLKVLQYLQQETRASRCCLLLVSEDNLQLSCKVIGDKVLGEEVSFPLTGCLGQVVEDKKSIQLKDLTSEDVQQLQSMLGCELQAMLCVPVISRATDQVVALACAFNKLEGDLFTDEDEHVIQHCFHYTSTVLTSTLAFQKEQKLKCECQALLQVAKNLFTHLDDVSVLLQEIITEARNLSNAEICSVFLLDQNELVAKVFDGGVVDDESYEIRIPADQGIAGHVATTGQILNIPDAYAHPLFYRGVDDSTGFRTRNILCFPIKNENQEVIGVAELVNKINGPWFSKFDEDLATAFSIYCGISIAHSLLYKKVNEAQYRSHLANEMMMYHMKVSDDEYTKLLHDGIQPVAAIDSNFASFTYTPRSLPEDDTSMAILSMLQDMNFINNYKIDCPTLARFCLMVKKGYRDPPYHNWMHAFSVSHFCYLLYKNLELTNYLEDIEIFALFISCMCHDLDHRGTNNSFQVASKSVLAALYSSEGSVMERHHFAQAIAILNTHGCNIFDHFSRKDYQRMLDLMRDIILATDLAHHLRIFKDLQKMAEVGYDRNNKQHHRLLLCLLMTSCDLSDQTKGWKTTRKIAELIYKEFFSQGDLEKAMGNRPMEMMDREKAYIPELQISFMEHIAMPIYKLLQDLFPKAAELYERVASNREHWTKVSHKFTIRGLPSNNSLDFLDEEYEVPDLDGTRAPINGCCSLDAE

[6] = biological target: T2, cAMP and cAMP-inhibited cGMP 3',5'-cyclic phosphodiesterase 10A (Homo sapiens, UniProt Q9Y233); assay: Inhibition of human PDE10A
T2 sequence (Q9Y233 whole entry): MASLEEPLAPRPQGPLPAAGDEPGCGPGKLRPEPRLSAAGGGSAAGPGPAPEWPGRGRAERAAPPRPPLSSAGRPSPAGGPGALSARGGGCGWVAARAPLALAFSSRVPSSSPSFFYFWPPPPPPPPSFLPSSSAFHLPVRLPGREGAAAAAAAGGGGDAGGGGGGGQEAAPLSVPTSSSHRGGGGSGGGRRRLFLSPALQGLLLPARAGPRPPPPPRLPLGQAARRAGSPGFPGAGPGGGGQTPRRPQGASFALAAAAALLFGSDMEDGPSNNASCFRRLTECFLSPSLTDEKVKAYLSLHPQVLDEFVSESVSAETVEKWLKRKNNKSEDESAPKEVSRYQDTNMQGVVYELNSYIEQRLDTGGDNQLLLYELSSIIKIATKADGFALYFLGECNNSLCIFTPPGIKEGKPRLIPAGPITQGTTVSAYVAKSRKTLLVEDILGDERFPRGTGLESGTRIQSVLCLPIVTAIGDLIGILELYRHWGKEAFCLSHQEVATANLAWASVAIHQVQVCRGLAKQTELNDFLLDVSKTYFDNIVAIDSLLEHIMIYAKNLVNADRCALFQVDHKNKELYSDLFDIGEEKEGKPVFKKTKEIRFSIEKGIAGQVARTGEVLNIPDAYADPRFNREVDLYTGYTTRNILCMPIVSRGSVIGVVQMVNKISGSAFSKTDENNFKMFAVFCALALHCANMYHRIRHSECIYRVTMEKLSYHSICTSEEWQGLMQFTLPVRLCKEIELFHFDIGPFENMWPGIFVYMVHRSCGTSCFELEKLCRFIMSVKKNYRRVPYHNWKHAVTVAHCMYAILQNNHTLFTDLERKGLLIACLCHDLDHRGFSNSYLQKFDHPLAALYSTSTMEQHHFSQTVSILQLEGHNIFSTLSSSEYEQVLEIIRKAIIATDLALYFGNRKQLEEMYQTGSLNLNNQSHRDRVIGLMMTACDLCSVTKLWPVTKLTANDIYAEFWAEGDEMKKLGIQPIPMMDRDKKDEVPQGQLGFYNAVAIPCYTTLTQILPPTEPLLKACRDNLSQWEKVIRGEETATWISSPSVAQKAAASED

[7] = biological target: Phosphodiesterase 4 (Homo sapiens, UniProt P27815+Q08499+Q07343+Q08493); assay: Binding affinity to human PDE4 assessed as dissociation constant; format: protein assay
[8] = biological target: Phosphodiesterase 1 (Homo sapiens, UniProt P54750+Q01064+Q14123); assay: Inhibition of PDE1 (unknown origin); format: protein assay
[9] = biological target: T2, cAMP and cAMP-inhibited cGMP 3',5'-cyclic phosphodiesterase 10A; assay: Inhibition of PDE10A (unknown origin)
[10] = biological target: T2, cAMP and cAMP-inhibited cGMP 3',5'-cyclic phosphodiesterase 10A; assay: Binding affinity to full length human PDE10A assessed as dissociation constant using [3H]-cAMP as substrate
[11] = biological target: T2, cAMP and cAMP-inhibited cGMP 3',5'-cyclic phosphodiesterase 10A; assay: Binding affinity to full length human PDE10A assessed as dissociation constant
[12] = biological target: T3, cGMP-specific 3',5'-cyclic phosphodiesterase (Homo sapiens, UniProt O76074); assay: Binding affinity to PDE5 (unknown origin); details: tested as the 18F-labelled form
[13] = biological target: T3, cGMP-specific 3',5'-cyclic phosphodiesterase; assay: Inhibition of PDE5 (unknown origin)
[14] = biological target: T3, cGMP-specific 3',5'-cyclic phosphodiesterase; assay: Inhibition of PDE5A (unknown origin)
[15] = biological target: T4, cAMP and cAMP-inhibited cGMP 3',5'-cyclic phosphodiesterase 10A (Rattus norvegicus, UniProt Q9QYJ6)
T4 sequence (Q9QYJ6 whole entry): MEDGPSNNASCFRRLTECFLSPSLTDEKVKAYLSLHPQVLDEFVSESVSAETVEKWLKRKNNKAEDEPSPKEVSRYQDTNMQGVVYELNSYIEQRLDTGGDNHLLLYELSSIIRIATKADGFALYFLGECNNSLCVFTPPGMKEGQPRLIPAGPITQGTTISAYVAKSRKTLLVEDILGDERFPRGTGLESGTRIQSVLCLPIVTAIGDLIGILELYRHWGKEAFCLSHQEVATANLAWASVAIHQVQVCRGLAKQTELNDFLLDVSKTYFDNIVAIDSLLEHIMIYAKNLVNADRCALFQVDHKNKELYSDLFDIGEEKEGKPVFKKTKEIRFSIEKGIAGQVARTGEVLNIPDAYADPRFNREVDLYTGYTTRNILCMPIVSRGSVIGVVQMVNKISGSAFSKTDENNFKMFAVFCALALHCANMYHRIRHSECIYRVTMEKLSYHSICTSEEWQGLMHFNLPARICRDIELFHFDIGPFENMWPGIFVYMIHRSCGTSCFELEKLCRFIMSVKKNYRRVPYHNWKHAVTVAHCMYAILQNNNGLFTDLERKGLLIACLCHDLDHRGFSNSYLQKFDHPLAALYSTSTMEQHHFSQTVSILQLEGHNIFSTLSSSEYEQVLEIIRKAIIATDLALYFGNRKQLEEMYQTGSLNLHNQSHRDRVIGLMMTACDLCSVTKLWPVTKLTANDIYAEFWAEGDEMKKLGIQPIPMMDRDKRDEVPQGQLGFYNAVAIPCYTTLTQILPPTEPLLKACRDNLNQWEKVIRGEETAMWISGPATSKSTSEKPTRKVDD

[16] = Metabolic stability in cynomolgus monkey assessed as parent compound remaining incubated for 30 mins in presence of NADPH; format: ADME, Macaca fascicularis; details: read-out: Stability
[17] = Metabolic stability in mouse brain assessed as parent compound remaining incubated for 30 mins by HPLC analysis; format: ADME, tissue-based; details: read-out: Stability
[18] = Drug uptake in mouse striatum assessed as standardized uptake value; format: ADME, tissue-based; details: in vivo
[19] = Metabolic stability in mouse plasma assessed as parent compound remaining incubated for 30 mins by HPLC analysis; format: ADME, cell-free; details: read-out: Stability
[20] = Drug uptake in mouse brown adipose tissue; format: ADME, tissue-based; details: in vivo
[21] = Drug uptake in mouse striatum; format: ADME, tissue-based; details: in vivo
[22] = Toxicity in mouse assessed as body weight loss at 10 mg/kg/day, po; format: organism-based; details: in vivo
[23] = biological target: Dual specificity calcium/calmodulin-dependent 3',5'-cyclic nucleotide phosphodiesterase 1C (Homo sapiens, UniProt Q14123); assay: Inhibition of human PDE1C
Chain of Dual specificity calcium/calmodulin-dependent 3',5'-cyclic nucleotide phosphodiesterase 1C (Q14123 whole entry): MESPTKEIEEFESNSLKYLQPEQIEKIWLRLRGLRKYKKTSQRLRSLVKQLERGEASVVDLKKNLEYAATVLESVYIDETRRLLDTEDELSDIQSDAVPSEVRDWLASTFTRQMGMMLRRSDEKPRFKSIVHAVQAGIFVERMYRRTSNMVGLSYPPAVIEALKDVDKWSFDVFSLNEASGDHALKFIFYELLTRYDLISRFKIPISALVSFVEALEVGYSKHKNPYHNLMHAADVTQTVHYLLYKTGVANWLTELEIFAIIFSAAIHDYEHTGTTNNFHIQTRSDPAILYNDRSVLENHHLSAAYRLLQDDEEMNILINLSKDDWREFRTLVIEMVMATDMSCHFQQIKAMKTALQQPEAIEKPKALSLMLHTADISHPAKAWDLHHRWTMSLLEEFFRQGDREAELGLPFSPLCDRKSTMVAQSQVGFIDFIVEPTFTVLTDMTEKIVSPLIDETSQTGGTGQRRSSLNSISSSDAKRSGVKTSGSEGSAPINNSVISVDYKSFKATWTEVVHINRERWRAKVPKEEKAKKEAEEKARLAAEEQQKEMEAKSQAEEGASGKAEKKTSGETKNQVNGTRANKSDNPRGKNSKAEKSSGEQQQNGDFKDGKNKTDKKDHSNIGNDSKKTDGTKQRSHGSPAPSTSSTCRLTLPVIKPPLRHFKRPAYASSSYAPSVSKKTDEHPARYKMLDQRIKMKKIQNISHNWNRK

[24] = biological target: T1, cGMP-dependent 3',5'-cyclic phosphodiesterase; assay: Inhibition of human PDE2
[25] = biological target: 3',5'-cyclic-AMP phosphodiesterase 4A (Homo sapiens, UniProt P27815); assay: Inhibition of human PDE4A
[26] = biological target: Dual specificity calcium/calmodulin-dependent 3',5'-cyclic nucleotide phosphodiesterase 1B (Homo sapiens, UniProt Q01064); assay: Inhibition of human PDE1B
Chain of Dual specificity calcium/calmodulin-dependent 3',5'-cyclic nucleotide phosphodiesterase 1B (Q01064 whole entry): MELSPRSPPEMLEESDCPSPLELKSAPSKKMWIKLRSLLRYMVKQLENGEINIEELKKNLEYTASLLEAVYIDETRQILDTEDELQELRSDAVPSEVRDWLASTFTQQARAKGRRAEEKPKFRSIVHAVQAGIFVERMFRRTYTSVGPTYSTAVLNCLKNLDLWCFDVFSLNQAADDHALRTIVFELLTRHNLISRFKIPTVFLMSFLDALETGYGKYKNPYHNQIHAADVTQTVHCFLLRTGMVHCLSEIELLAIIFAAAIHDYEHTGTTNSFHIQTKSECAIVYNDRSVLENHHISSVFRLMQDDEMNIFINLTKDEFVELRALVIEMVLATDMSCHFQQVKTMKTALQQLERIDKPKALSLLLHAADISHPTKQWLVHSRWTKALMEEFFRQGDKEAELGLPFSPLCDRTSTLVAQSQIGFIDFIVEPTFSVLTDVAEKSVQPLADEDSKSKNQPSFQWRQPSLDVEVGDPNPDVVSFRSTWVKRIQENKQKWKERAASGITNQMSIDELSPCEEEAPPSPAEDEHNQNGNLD

[27] = biological target: T3, cGMP-specific 3',5'-cyclic phosphodiesterase; assay: Inhibition of human PDE5
[28] = biological target: High affinity 3',5'-cyclic-AMP phosphodiesterase 7A (Homo sapiens, UniProt Q13946); assay: Inhibition of human PDE7A1
Chain of High affinity 3',5'-cyclic-AMP phosphodiesterase 7A (Q13946 whole entry): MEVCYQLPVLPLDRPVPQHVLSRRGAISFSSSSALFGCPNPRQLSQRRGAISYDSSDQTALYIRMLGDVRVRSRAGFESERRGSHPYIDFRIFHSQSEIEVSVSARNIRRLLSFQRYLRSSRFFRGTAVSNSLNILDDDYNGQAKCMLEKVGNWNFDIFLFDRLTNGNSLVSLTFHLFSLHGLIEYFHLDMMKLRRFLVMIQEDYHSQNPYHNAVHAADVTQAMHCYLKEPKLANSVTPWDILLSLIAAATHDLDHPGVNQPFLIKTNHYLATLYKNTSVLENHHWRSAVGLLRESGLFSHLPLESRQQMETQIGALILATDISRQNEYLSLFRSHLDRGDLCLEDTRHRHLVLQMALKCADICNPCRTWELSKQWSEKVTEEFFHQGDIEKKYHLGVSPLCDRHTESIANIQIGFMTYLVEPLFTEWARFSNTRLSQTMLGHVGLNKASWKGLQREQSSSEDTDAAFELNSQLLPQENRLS

[29] = Drug uptake in pig myocardium assessed as standardized uptake value; format: ADME, tissue-based, Sus scrofa; details: in vivo
[30] = Metabolic stability in non human primates plasma assessed as parent compound remaining incubated for 70 mins by HPLC analysis; format: ADME, cell-free; details: read-out: Stability
[31] = Metabolic stability in baboon brain assessed as parent compound remaining incubated for 90 mins; format: ADME, tissue-based, Papio; details: read-out: Stability
[32] = Lipophilicity, logD of the compound in Octanol/potassium phosphate buffer at pH 7.4 after 1 hr by HPLC analysis; format: physicochemical
[33] = biological target: Dual 3',5'-cyclic-AMP and -GMP phosphodiesterase 11A (Homo sapiens, UniProt Q9HCR9); assay: Inhibition of human PDE11
Chain of Dual 3',5'-cyclic-AMP and -GMP phosphodiesterase 11A (Q9HCR9 whole entry): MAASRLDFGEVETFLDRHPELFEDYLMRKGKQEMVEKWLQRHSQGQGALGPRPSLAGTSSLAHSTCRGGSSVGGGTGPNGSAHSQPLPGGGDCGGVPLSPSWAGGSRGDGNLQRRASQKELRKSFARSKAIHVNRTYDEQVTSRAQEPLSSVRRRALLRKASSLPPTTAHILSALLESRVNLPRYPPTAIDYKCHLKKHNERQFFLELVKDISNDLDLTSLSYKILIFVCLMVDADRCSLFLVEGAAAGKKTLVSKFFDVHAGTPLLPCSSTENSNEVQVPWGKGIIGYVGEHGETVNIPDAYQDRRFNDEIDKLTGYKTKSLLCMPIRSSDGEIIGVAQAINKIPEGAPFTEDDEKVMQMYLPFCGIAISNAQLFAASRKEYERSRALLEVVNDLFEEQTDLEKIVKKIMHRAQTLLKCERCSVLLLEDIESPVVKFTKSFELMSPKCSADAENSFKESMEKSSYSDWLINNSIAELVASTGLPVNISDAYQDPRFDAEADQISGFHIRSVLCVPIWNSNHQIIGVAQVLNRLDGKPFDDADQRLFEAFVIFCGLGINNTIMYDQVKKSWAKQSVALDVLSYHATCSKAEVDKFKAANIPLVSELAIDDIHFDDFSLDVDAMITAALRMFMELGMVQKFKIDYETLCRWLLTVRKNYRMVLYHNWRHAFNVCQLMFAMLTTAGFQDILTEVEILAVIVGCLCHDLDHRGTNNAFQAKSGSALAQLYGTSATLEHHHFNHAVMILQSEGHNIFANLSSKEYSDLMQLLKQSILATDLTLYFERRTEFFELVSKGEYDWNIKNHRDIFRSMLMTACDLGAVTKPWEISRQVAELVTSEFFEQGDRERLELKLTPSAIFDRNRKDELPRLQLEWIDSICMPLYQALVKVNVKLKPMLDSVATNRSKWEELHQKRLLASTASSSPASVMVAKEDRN

[34] = biological target: T2, cAMP and cAMP-inhibited cGMP 3',5'-cyclic phosphodiesterase 10A; assay: Inhibition of human PDE10
[35] = Stability in human plasma assessed as parent compound remaining after 120 mins; format: ADME, cell-free; details: read-out: Stability
[36] = Drug uptake in human caudate nucleus assessed as standardized uptake value; format: ADME, tissue-based
[37] = Drug uptake in human globus pallidus assessed as standardized uptake value; format: ADME, tissue-based
[38] = Drug uptake in human putamen nucleus assessed as standardized uptake value; format: ADME, tissue-based
[39] = biological target: T2, cAMP and cAMP-inhibited cGMP 3',5'-cyclic phosphodiesterase 10A; assay: Binding affinity to PDE10A (unknown origin) assessed as dissociation constant

IC50 [5]: 913 nM | IC50 [6]: 7.3 nM
SMILES: COc1ccc2nnc3c(C)nc(-c4cc(OCCCC[18F])ccc4F)n3c2n1

IC50 [8]: 170 nM
SMILES: CCC(CC)Nc1ncnc2c(OC)c(OC)ccc12

Bmax [12]: 0.1 nM | IC50 [13]: 1.86 nM | IC50 [14]: 5.92 nM
SMILES: COc1ccc(CNc2c(CO)cnc3c(N4CC(F)C4)cc(C#N)cc23)cc1Cl

IC50 [15]: 0.39 nM | remaining at 0.5 h [16]: 27%
SMILES: Cc1ccc(C)n2nc(CCc3nc(-c4ccccc4)cn3[11CH3])nc12

remaining at 0.5 h [17]: 88% | SUV [18]: 2.7 | remaining at 0.5 h [19]: 64% | Drug uptake [20]: 30% | Drug uptake [21]: 130%
SMILES: COc1cc(Br)cc2c1nc(C)c1c(C)nc(-c3ccc([18F])nc3)n12

SUVmax [3]: 8.9
SMILES: CCCc1nc(C)c2c(=O)[nH]c(-c3cc(S(=O)(=O)N4CCN(CC[18F])CC4)ccc3OCC)nn12

Bmax [12]: 0.1 nM | IC50 [14]: 5.92 nM
SMILES: CCc1cc(C#N)cc2c(NCc3ccc(OC)c(Cl)c3)c(COCCF)cnc12

IC50 [6]: > 1000 nM
SMILES: CCCCOc1ccc(F)c(-c2nc(C)c3nnc4ccc(OCC[18F])nc4n23)c1

IC50 [9]: 2 nM
SMILES: Cc1cnc(COc2ccc(-c3nn(CC[18F])cc3-c3ccncc3)cc2)c(C)c1

remaining at 2 h [35]: 20% | SUV [36]: 0.7% | SUV [37]: 1.5% | SUV [38]: 0.7% | Kd [39]: 0.029 nM
SMILES: Cc1ccc2c(=O)n(-c3ccc4cnn(CC[18F])c4c3)c(CCN3C(=O)c4cccc(OC(C)C)c4C3=O)nc2c1

IC50 [9]: 1.9 nM
SMILES: COc1cc2nncc(-c3cnc(NC(C)C)c(C)c3)c2cc1O[11CH3]

Continued, compound first:

SMILES: [11CH3]n1nnc(COc2ccc(Cl)c3c2C2(CCCCC2)NC(=O)N3)n1
IC50 [1]: 1.7 nM | remaining at […] [2]: 74%

SMILES: CCCc1nn(C)c2c(=O)[nH]c(-c3cc(S(=O)(=O)N4CCN([11CH3])CC4)ccc3OCC)nc12
SUVmax [3]: 8 | Drug uptake [4]: > 86%

SMILES: O=C1Nc2c(Cl)ccc(OCC[18F])c2C2(CCCCC2)N1
IC50 [1]: 17 nM | remaining at […] [2]: 84%

SMILES: COc1ccc2nnc3c(C)nc(-c4cc(OCCC[18F])ccc4F)n3c2n1
IC50 [5]: 11.4 nM | IC50 [6]: 7.3 nM

SMILES: O=C1C[C@H](c2ccc(OCF)c(OC3CCCC3)c2)CN1
Kd [7]: 0.26 nM

SMILES: CC(C)Cn1c(=O)n(C)c(=O)c2c(Nc3ccccc3)n(Cc3ccc(C4CCCN4C)cc3)nc21 (stereo not drawn)
IC50 [8]: 13 nM

SMILES: [18F]CCn1cc(-c2ccncc2)c(-c2ccc(OCc3ccc4ccccc4n3)cc2)n1
IC50 [9]: 0.5 nM | Kd [10]: 3.17 nM | Kd [11]: 6.62 nM

SMILES: CC(=O)N1CCC(c2nccnc2Oc2ccc(C(=O)c3nc4ccccc4[nH]3)cc2)CC1
IC50 [9]: 0.18 nM

SMILES: Cn1cc(-c2ccncc2)c(-c2ccc(OCc3ccc4ccccc4n3)cc2)n1 [MARDEPODECT]
Activity [22]: 8.61%

SMILES: Cc1ccc([N+](=O)[O-])cc1S(=O)(=O)N(C)C
IC50 [23]: 62000 nM | IC50 [24]: 62000 nM | IC50 [25]: 62000 nM | IC50 [26]: 62000 nM | IC50 [27]: 62000 nM | IC50 [28]: 260 nM

SMILES: CCCCN1C(=O)[C@H]2Cc3c([nH]c4ccccc34)[C@@H](c3ccc(O[11CH3])cc3)N2C1=O
SUV [29]: 3.8

SMILES: [11CH3]n1cc(-c2ccncc2)c(-c2ccc(OCc3ccc4ccccc4n3)cc2)n1
remaining at 1.167 h [30]: 24% | remaining at 1.5 h [31]: 30%

SMILES: [11CH3]N(c1cc(N2CC[C@@H](F)C2)nc2cc(-c3cnc4c(n3)CCCC4)nn12)C1CCOCC1
remaining at 1.5 h [31]: 50% | IC50 [9]: 0.06 nM

SMILES: CC([18F])C(=O)N1CCC(c2nccnc2Oc2ccc(C(=O)c3nc4ccccc4[nH]3)cc2)CC1 (stereo not drawn)
IC50 [9]: 0.13 nM

SMILES: CC(C)Oc1cccc2c1C(=O)N(CCc1nc3ccccc3c(=O)n1-c1ccc(O[11CH3])cc1)C2=O
logD at 1 h [32]: 3.19

SMILES: CC(C)C(=O)c1c(C(C)C)nn2ccccc12 [IBUDILAST]
IC50 [33]: ≤ 10000 nM | IC50 [34]: ≤ 10000 nM

SMILES: CCCCN1C(=O)[C@H]2Cc3c([nH]c4ccccc34)[C@@H](c3ccc(OC)cc3)N2C1=O
SUV [29]: 2.6

SMILES: [11CH3]Oc1cn(-c2ccc(C3CCOCC3)cc2F)nc(-c2ccnn2-c2ccccc2)c1=O
IC50 [9]: 0.77 nM

SMILES: Cc1ccc2c(=O)n(-c3ccc(OC[18F])cc3)c(CCN3C(=O)c4cccc(OC(C)C)c4C3=O)nc2c1
remaining at 2 h [35]: 20% | Kd [39]: 0.097 nM
